Source: patent US6518317B1, “Antiviral agents” (priority 1997, dated 2003)

Columns and labels:
[1] = system: heat shock protein of 70 kDa; assay: Induction of heat shock protein of 70 kDa in HL-60 cells (SDS-PAGE and blotting); format: cell-based, human; conditions: HL-60 cells, as Table 1
Method: (1) An RPMI 1640 medium (5 ml) containing 10% of fetal bovine serum which contained 2×10^5 cells/ml of human promyelocytic leukemia cells HL-60 (ATCC CCL-240) was placed in each well of a six-well plate, incubated at 37° C. for 24 hours in the presence of 5% of CO2, then the cyclopentenone described in the referential example L was added thereto to make its final concentration 0, 10, 20, 30, 40, 50, or 100 μM and the incubation was further continued for eight hours more.
After completion of the incubation, cell numbers were counted and the cells were recovered by centrifugation and washed with phosphate-buffered saline (PBS) to prepare cyclopentenone-treated cells. In the meanwhile, cells which were heated at 45° C. for ten minutes followed by subjecting to the same incubation were prepared as well.
The cells treated as such were subjected to an SDS-polyacrylamid gel electrophoresis (SDS-PAGE) by a method mentioned in “Molecular Cloning” [Cold Spring Harbor Laboratory Press, (1989)]. The treated cells were suspended in an SDS-PAGE sample buffer to make the concentration 2.5×10^6 cells/ml, the resulting cell suspension was treated at 100° C. for ten minutes and each 5 μl thereof was applied to two sheets of SDS-PAGE gels (5% stacking gel; 10% separation gel) to conduct anelectrophoresis. One of the gels was Coomassie stained while another gel was subjected to a blotting to a polyvinylidene difluoride transfer membrane (Immobilon™, manufactured by Millipore, catalog no. IPVH000-10). The membrane was subjected to a blocking at 4° C. for one night with Block Ace (manufactured by Dainippon Pharmaceutical; catalog no. UK-B25).
The blocked membrane was made to react with monoclonal antibody HSP 72/73 (Ab-1) (manufactured by Oncogene Research Products, catalog no. HSP01) which would specifically react with heat-induced heat shock protein of 70 kDa and washed with TBS containing 0.05% of Tween 20 followed by further washing with TBS. After that, it was made to react with peroxidase-compounded secondary antibody HRP-Rabbit Anti-Mouse IgG (H+L) (manufactured by Zymed Laboratories, catalog no. 61-6520) and washed by the same manner as in the above operation. The membranes which were treated with primary and secondary antibodies as such were made to react with Renaissance™ (a chemiluminor reagent manufactured by Dupont NEN, catalog no. NEL-100) and photosensitized with an X-ray film to confirm the induction of heat shock protein of 70 kDa.
The result was that, by addition of cyclopentenone (20 to 30 μM), induction of heat shock protein of 70 kDa which is almost same as heat-treated at 45° C. for 10 minutes was confirmed. In Table 1, “+” indicates degree of intensity of induction and the more the numbers of “+”, the more the intensity of induction. Incidentally, “−” means that no induction was noted and “±” means the induction was slight.

Ad5 dlX [an adenovirus] = assay: Adenovirus hexon protein in HeLa cells treated with cyclopentenone before infection; format: cell-based; conditions: Examples 2-(2)~(6)
Method: After that, the cells were washed with the DMEM containing 5% of fetal bovine serum, then the DMEM containing 5% of fetal bovine serum which contained Ad5 dlX [an adenovirus; Saito, etal.; Journal ofVirology, volume 54, pages 711-719 (1985)] was added to the cells so that the cells were infected therewith and incubation was conducted for 20 hours. […] The medium was discarded, 1 ml of 10% trichloroacetic acid was added to each of the wells and the cells were recovered by a scraper.
Then SDS-PAGE and blotting of the treated cells obtained hereinabove were conducted by the method of Example 1 to detect the expression of hexon proteins of the adenovirus. Incidentally, anti-adenovirus hexon antibody (AB 1056; manufactured by Chemicon International Inc.) was used as the primary antibody.

[2] = system: carcinogenesis caused by a two-stage carcinogenesis on skin; assay: Two-stage (DMBA/TPA) carcinogenesis on skin of mice; format: in vivo, mice of ICR strain; conditions: mouse, in vivo
Method: Hair on the back of mice of ICR strain (purchased from Nippon SLC; seven weeks age; female) was shaved and DMBA (dimethylbenzanthracene) as an initiator in a form of a solution in acetone was applied thereto at the dose of 50 μg/mouse.
Thus, FIG. 5 is a graph showing the anti-carcinogenic action of the cyclopentenone in which ordinate is a carcinogenic rate while abscissa is time (weeks). In the graph, open triangles, black triangles and open circles stand for a group treated with 2.5 mg of the cyclopentenone per mouse (12 mice in total), a group treated with 0.8 mg of the cyclopentenone per mouse (11 mice in total) and a control group (12 mice in total), respectively.

[3] = system: vesicular stomatitis virus; conditions: cited from earlier work
Sendai virus = conditions: cited from earlier work

With `O=C1C=C[C@H](O)[C@H]1O` (single isomer, unassigned) [(+)-cyclopentenone] the “induction of heat shock protein of 70 kDa, compared with the cyclopentenone” value [1] was “Same results”, the “antiviral activity to adenovirus, compared with the cyclopentenone” value (Ad5 dlX [an adenovirus]) was “Same results” and the “anti-promoter action in two-stage chemical carcinogenesis, compared with the cyclopentenone” value [2] was “same result”.
For `O=C1C=C[C@@H](O)[C@@H]1O` (single isomer, unassigned) [(−)-cyclopentenone], the “induction of heat shock protein of 70 kDa, compared with the cyclopentenone” value [1] was “Same results”, the “antiviral activity to adenovirus, compared with the cyclopentenone” value (Ad5 dlX [an adenovirus]) was “Same results” and the “anti-promoter action in two-stage chemical carcinogenesis, compared with the cyclopentenone” value [2] was “same result”.
In the case of `O=C1C=CCC1` [2-cyclopenten-1-one], the “concentration required for inducing the HSP70” value [3] is listed as “several hundred”, the “synthesis of HSP70” value [3] is listed as “induces” and the “synthesis of vesicular stomatitis virus protein” value [3] is listed as “inhibits”.
In the case of `CCCCC[C@H](O)/C=C/[C@H]1C=CC(=O)[C@@H]1CCCCCCC(=O)O` [prostaglandin Al, prostaglandin A1], the “synthesis of HSP70 and HSP90” value (Sendai virus; animal cells infected with Sendai virus) is listed as “induced” and the “synthesis of virus protein” value (Sendai virus; during the synthesis of HSP70 is induced) is listed as “inhibited”.
